Data on 21 compounds can be found in ChEMBL document CHEMBL1909046, “DrugMatrix in vitro pharmacology data”.

Each structure is given as a SMILES string. *1 amine or outer side, *2 acyl side, *3 side chain or, on linkers, in order; H or OH if unused. Where a SMILES comes first, the peptide text is derived from it. Bridges are numbered along the chain shown (N, C = ends). Roman numbers before positions name the chains, in order. [ ]: non-standard residue; d: D form. Actinocin(1to9) = Cc1c2oc3c(C)ccc(C(=O)[*:2])c3nc-2c(C(=O)[*:1])c(N)c1=O; NMeV = CN[C@H](C(=O)O)C(C)C; Sar = CNCC(=O)O

Assay [1] addresses Sodium-dependent noradrenaline transporter (Homo sapiens, UniProt P23975). Description: DRUGMATRIX: Norepinephrine Transporter radioligand binding (ligand: [125I] RTI-55). The note with it: Not Active = under 50% inhibition at 10 µM; for Ki: read-out: Ki. The class given is cell membranes, MDCK, Membrane.
In the next assay the target is Adenosine receptor A2a (Homo sapiens, UniProt P29274). Kind of assay: DRUGMATRIX: Adenosine A2A radioligand binding (ligand: […]). The format is cell membranes, Membrane. The note with it: hek293; Not Active = under 50% inhibition at 10 µM.
Assay [2] addresses T1, Alpha-1A adrenergic receptor (Rattus norvegicus, UniProt P43140).
T1 sequence (P43140 whole entry): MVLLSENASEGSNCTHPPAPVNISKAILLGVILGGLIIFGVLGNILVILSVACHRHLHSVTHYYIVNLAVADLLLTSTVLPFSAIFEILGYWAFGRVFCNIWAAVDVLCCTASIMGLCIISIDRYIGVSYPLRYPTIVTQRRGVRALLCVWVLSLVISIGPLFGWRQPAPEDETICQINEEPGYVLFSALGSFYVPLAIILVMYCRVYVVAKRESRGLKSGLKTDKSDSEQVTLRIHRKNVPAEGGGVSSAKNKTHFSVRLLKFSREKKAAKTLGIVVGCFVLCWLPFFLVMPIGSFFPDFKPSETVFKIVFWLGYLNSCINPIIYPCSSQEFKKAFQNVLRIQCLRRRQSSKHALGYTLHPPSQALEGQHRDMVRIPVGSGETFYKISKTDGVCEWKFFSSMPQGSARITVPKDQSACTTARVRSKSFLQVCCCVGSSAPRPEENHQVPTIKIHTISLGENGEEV
Kind of assay: DRUGMATRIX: Alpha-1A adrenergic receptor radioligand binding (ligand: prazosin). The format is cell membranes, Wistar, Submaxillary gland, Membrane. The note with it: Not Active = under 50% inhibition at 10 µM.

For assay [3], the target named is T2, Muscarinic acetylcholine receptor M4 (Homo sapiens, UniProt P08173). Also: in other assays of this panel Not Active means under 50% inhibition at 10 µM.
T2 sequence (P08173 whole entry): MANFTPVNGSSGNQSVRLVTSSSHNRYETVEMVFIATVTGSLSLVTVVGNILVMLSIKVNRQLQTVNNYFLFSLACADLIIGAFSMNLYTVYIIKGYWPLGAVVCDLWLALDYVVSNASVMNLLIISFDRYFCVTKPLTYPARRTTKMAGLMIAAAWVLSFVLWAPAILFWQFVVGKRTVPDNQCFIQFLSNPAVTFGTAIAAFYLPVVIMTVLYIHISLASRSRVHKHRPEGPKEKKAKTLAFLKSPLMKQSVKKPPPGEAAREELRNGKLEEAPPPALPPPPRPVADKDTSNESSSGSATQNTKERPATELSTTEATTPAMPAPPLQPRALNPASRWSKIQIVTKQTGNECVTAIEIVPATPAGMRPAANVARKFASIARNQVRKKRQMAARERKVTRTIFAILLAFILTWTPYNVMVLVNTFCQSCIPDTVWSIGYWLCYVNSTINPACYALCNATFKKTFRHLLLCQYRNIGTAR
The format is cell membranes, CHO-K1, Membrane. The note with it: cho-k1.

Assay [4] in a line: DRUGMATRIX: Calcium Channel Type L, Dihydropyridine radioligand binding (ligand: [3H] Nitrendipine). The class given is cell membranes, Rattus norvegicus, Wistar, Cerebral cortex, Membrane. The note with it: Not Active = under 50% inhibition at 10 µM.
The next assay has as its target Nitric oxide synthase 1 (Rattus norvegicus, UniProt P29476). The class given is tissue-based, Cerebellum. Also: in other assays of this panel Not Active means under 50% inhibition at 10 µM.

Sequence of Adenosine receptor A2a (P29274 whole entry): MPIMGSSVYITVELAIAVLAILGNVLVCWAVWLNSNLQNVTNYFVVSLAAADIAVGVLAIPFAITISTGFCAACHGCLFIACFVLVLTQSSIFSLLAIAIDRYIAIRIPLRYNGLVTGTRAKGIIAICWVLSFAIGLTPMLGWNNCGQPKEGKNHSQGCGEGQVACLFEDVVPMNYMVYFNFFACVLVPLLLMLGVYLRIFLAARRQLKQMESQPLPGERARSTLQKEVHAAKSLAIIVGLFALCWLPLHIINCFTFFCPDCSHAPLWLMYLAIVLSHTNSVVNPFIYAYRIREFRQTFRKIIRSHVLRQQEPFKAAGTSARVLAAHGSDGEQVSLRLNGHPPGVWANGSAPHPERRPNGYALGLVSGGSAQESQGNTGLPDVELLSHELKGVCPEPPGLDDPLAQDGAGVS
Sequence of Nitric oxide synthase 1 (P29476 whole entry): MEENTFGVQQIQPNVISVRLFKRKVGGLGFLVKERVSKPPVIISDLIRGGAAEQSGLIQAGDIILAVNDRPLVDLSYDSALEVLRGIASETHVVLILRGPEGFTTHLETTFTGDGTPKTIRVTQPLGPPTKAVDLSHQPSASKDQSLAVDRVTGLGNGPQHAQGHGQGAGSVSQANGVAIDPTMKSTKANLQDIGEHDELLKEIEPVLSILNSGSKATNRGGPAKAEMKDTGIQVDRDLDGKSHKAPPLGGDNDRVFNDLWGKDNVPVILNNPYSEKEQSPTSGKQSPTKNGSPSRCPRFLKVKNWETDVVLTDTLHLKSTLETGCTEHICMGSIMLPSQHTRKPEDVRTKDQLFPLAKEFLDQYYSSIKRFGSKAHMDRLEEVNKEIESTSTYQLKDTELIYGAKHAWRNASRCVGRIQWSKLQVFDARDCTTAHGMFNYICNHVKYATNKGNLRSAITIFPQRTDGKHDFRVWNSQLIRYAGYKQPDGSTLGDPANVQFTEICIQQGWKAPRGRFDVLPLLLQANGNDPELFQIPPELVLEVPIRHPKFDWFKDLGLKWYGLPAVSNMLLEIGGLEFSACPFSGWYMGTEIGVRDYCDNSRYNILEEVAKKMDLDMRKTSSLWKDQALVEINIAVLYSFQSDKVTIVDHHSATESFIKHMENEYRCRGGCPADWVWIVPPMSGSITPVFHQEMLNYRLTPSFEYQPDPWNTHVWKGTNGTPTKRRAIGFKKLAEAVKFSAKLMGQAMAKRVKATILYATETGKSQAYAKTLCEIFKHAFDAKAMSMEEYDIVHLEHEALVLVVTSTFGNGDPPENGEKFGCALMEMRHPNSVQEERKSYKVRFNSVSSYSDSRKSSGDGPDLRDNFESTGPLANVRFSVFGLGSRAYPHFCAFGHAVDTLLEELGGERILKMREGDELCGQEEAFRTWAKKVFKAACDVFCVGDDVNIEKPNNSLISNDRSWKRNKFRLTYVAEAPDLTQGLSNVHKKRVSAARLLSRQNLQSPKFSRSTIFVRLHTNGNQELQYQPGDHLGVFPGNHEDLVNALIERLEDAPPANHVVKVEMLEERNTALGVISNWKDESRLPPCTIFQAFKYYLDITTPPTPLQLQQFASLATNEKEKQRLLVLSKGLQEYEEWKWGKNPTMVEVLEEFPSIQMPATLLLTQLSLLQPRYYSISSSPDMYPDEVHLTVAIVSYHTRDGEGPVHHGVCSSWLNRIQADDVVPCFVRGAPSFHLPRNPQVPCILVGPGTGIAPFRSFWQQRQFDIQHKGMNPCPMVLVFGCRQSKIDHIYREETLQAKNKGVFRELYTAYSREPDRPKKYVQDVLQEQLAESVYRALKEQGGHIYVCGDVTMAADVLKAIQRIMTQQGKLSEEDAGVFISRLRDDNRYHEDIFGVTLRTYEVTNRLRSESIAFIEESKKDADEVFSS
Sequence of Sodium-dependent noradrenaline transporter (P23975 whole entry): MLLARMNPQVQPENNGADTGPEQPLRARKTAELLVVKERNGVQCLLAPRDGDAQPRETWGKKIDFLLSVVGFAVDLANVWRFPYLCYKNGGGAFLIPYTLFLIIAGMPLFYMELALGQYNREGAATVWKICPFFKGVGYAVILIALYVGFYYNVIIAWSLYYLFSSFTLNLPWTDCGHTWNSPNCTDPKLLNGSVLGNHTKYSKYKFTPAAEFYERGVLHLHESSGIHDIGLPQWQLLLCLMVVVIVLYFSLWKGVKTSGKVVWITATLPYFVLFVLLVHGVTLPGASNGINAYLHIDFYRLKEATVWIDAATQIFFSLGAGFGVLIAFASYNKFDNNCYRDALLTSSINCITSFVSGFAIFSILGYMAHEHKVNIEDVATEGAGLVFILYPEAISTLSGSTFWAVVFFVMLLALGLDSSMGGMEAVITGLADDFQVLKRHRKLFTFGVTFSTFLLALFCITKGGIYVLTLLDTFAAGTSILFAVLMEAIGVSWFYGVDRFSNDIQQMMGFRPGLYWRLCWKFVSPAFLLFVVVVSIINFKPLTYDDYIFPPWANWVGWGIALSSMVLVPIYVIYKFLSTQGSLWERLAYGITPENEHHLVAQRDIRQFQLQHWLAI

In the case of `c1ccc2c(c1)c1cccc3ccc4cccc2c4c31` [BENZO[E]PYRENE], the IC50 result (in assay [1] (mdck); at Adenosine receptor A2a; in assay [2]; in assay [3]; in assay [4]; at Nitric oxide synthase 1) was “Not Active” throughout. The Ki entry in assay [4] was “Not Active”.

Consider `CNCCc1ccccn1` [BETAHISTINE], for which the IC50 entry (in assay [1] (mdck); on Adenosine receptor A2a; in assay [2]; in assay [3]; in assay [4]; against Nitric oxide synthase 1) was “Not Active” throughout. Further, the Ki result in assay [4] is “Not Active”.

On to `CC(C)C(Br)C(=O)NC(N)=O` (centres undefined) [BROMISOVALUM], for which the IC50 result (in assay [1] (mdck); on Adenosine receptor A2a; in assay [2]; in assay [3]; in assay [4]; against Nitric oxide synthase 1) was “Not Active” throughout. Besides, the Ki entry in assay [4] was “Not Active”.

Regarding `CCCC1O[C@@H]2C[C@H]3[C@@H]4CCC5=CC(=O)C=C[C@]5(C)[C@H]4[C@@H](O)C[C@]3(C)[C@]2(C(=O)CO)O1` (some centres undefined) [BUDESONIDE], the IC50 result (in assay [1] (mdck); on Adenosine receptor A2a; in assay [2]; in assay [3]; in assay [4]; against Nitric oxide synthase 1) was “Not Active” each time. The inhibition constant (Ki) entry in assay [4] is “Not Active”.

For `CC(NC(C)(C)C)C(=O)c1cccc(Cl)c1` (centres undefined) [BUPROPION], the concentration for half-maximal inhibition (IC50) entry (in assay [1] (mdck); on Adenosine receptor A2a; in assay [2]; in assay [3]; in assay [4]; at Nitric oxide synthase 1) was “Not Active” each time. In addition, the Ki result in assay [4] is “Not Active”.

Consider `CN(Cc1ccc(C(C)(C)C)cc1)Cc1cccc2ccccc12` [BUTENAFINE], for which the IC50 in assay [1] (read-out: IC50) was 3.91 µM; at Adenosine receptor A2a, “Not Active”; in assay [2], “Not Active”; in assay [3], “Not Active”; in assay [4], “Not Active”; at Nitric oxide synthase 1, “Not Active”. Moreover, the results for the inhibition constant (Ki) in assay [1] and in assay [4] were 3.88 µM and “Not Active”, respectively.

As for `C[C@H](CS)C(=O)N1CCC[C@H]1C(=O)O` [CAPTOPRIL], the half-inhibitory concentration (IC50) entry (in assay [1] (mdck); at Adenosine receptor A2a; in assay [2]; in assay [3]; in assay [4]; at Nitric oxide synthase 1) was “Not Active” throughout. Besides, the Ki entry in assay [4] is “Not Active”.

As to `Cc1ccc(-c2cc(C(F)(F)F)nn2-c2ccc(S(N)(=O)=O)cc2)cc1` [CELECOXIB], the 50% inhibitory concentration (IC50) is 7.31 µM in assay [1] (read-out: IC50); “Not Active” on Adenosine receptor A2a; “Not Active” in assay [2]; “Not Active” in assay [3]; 24.6 µM in assay [4] (read-out: IC50); “Not Active” against Nitric oxide synthase 1. Moreover, the Ki in assay [1] was determined as 7.25 µM; in assay [4] (read-out: Ki), 15.8 µM.

As for `O=C(O)CCCc1ccc(N(CCCl)CCCl)cc1` [CHLORAMBUCIL], the half-inhibitory concentration (IC50) entry (in assay [1] (mdck); at Adenosine receptor A2a; in assay [2]; in assay [3]; in assay [4]; against Nitric oxide synthase 1) was “Not Active” in each case. In addition, the Ki result in assay [4] is recorded as “Not Active”.

For the compound `C[C@H](CCC(=O)O)[C@H]1CC[C@H]2[C@@H]3[C@H](O)C[C@@H]4C[C@H](O)CC[C@]4(C)[C@H]3C[C@H](O)[C@]12C` [CHOLIC ACID], the concentration for half-maximal inhibition (IC50) result (in assay [1] (mdck); at Adenosine receptor A2a; in assay [2]; in assay [3]; in assay [4]; at Nitric oxide synthase 1) was “Not Active” each time. For the same compound, in assay [4], the inhibition constant (Ki) result is on record as “Not Active”.

`Cc1cc(C2CCCCC2)n(O)c(=O)c1` [CICLOPIROX]: the IC50 result (in assay [1] (mdck); on Adenosine receptor A2a; in assay [2]; in assay [3]; in assay [4]; against Nitric oxide synthase 1) was “Not Active” in each case. For the same compound, the Ki entry in assay [4] is “Not Active”.

Turning to `CC1=C2C(=CO[C@H](C)[C@H]2C)C(O)=C(C(=O)O)C1=O` [CITRININ], the IC50 entry (in assay [1] (mdck); on Adenosine receptor A2a; in assay [2]; in assay [3]; in assay [4]; against Nitric oxide synthase 1) was “Not Active” each time. Moreover, in assay [4], the Ki entry is reported as “Not Active”.

As for `CC(C)(C)NCC(O)c1cc(Cl)c(N)c(Cl)c1` (centres undefined) [CLENBUTEROL], the IC50 result (in assay [1] (mdck); on Adenosine receptor A2a; in assay [2]; in assay [3]; in assay [4]; at Nitric oxide synthase 1) was “Not Active” each time. Besides, the Ki result in assay [4] is “Not Active”.

`CC(C)(Oc1ccc(Cl)cc1)C(=O)O` [CLOFIBRIC ACID]: the IC50 result (in assay [1] (mdck); at Adenosine receptor A2a; in assay [2]; in assay [3]; in assay [4]; against Nitric oxide synthase 1) was “Not Active” throughout. Moreover, in assay [4], the Ki entry is reported as “Not Active”.

Take `Cc1cc(C(C#N)c2ccc(Cl)cc2)c(Cl)cc1NC(=O)c1cc(I)cc(I)c1O` (centres undefined) [CLOSANTEL]: the half-inhibitory concentration (IC50) result (in assay [1] (mdck); on Adenosine receptor A2a; in assay [2]; in assay [3]; in assay [4]; against Nitric oxide synthase 1) was “Not Active” in each case. Moreover, the inhibition constant Ki entry in assay [4] is reported as “Not Active”.

For the compound `Cc1onc(-c2ccccc2Cl)c1C(=O)N[C@@H]1C(=O)N2[C@@H]1SC(C)(C)[C@@H]2C(=O)O` [CLOXACILLIN], the IC50 result (in assay [1] (mdck); at Adenosine receptor A2a; in assay [2]; in assay [3]; in assay [4]; against Nitric oxide synthase 1) was “Not Active” throughout. In assay [4], the Ki entry is on record as “Not Active”.

In the case of `CC1CC(OC(=O)C(O)c2ccccc2)CC(C)(C)C1` (centres undefined) [CYCLANDELATE], the half-maximal inhibitory concentration (IC50) entry (in assay [1] (mdck); at Adenosine receptor A2a; in assay [2]; in assay [3]; in assay [4]; on Nitric oxide synthase 1) was “Not Active” throughout. For the same compound, the inhibition constant (Ki) entry in assay [4] is on record as “Not Active”.

For the compound `Cc1c2oc3c(C)ccc(C(=O)N[C@@H]4C(=O)N[C@H](C(C)C)C(=O)N5CCC[C@H]5C(=O)N(C)CC(=O)N(C)[C@@H](C(C)C)C(=O)O[C@@H]4C)c3nc-2c(C(=O)N[C@@H]2C(=O)N[C@H](C(C)C)C(=O)N3CCC[C@H]3C(=O)N(C)CC(=O)N(C)[C@@H](C(C)C)C(=O)O[C@@H]2C)c(N)c1=O` [DACTINOMYCIN] (I: T[dV]P[Sar][NMeV] / II: T[dV]P[Sar][NMeV]; ester I:1-I:C, II:1-II:C; linker I:N-II:N via Actinocin(1to9)), the IC50 entry (in assay [1] (mdck); on Adenosine receptor A2a; in assay [2]; in assay [3]; in assay [4]; on Nitric oxide synthase 1) was “Not Active” in each case. Further, in assay [4], the Ki result is recorded as “Not Active”.

Take `Cc1c(O)c(=O)ccn1C` [DEFERIPRONE]: the half-maximal inhibitory concentration (IC50) result (in assay [1] (mdck); on Adenosine receptor A2a; in assay [2]; in assay [3]; in assay [4]; on Nitric oxide synthase 1) was “Not Active” each time. Further, the inhibition constant Ki result in assay [4] is “Not Active”.

Consider `O=c1oc2ccccc2c(O)c1Cc1c(O)c2ccccc2oc1=O` [DICUMAROL], for which the half-inhibitory concentration (IC50) entry (in assay [1] (mdck); on Adenosine receptor A2a; in assay [2]; in assay [3]; in assay [4]; against Nitric oxide synthase 1) was “Not Active” throughout. The Ki result in assay [4] is “Not Active”.

Take `C[C@H]1O[C@@H](O[C@H]2[C@@H](O)C[C@H](O[C@H]3[C@@H](O)C[C@H](O[C@H]4CC[C@@]5(C)[C@H](CC[C@@H]6[C@@H]5C[C@@H](O)[C@]5(C)[C@@H](C7=CC(=O)OC7)CC[C@]65O)C4)O[C@@H]3C)O[C@@H]2C)C[C@H](O)[C@@H]1O` [DIGOXIN]: the IC50 entry (in assay [1] (mdck); on Adenosine receptor A2a; in assay [2]; in assay [3]; in assay [4]; on Nitric oxide synthase 1) was “Not Active” each time. In addition, the inhibitory constant (Ki) entry in assay [4] was “Not Active”.

For orientation: IC50 means the concentration that gives 50% inhibition. What is called Ki is the dissociation constant of the complex between target and ligand, obtained from inhibition or displacement.
